Test results as given in patent US20250099485A1, “COMPOSITIONS FOR PROMOTING HAIR GROWTH” (ESTETRA SRL, priority 2021, published 2025).

Experiments:
[1] = tested on: primary human dermal fibroblasts; experiment: Fibroblast monolayer scratch assay, human; type: cell-based; conditions: 10^−10 M to 10^−6 M, three female donors, compared with E2
Protocol: Human skin was transferred to the laboratory in holding media (DMEM containing 4% penicillin-streptomycin and Amphotericin B solution) within 30 minutes of collection. Once defatted, the skin was rinsed in HBSS with 4% PSA followed by DPBS without antibiotics, then cut into thin strips and floated on 0.2% Dispase II in DPBS overnight at 4° C., followed by manual separation of the epidermis from the dermis. Primary human epidermal keratinocytes and primary human dermal fibroblasts were then isolated.
(§1) Confluent wells of both primary keratinocytes and fibroblasts were subjected to a highly validated scratch wounding procedure (using a 1 mL sterile filter tip). Post-scratching, cells were rinsed with DPBS and cell-specific media containing treatments added to each well. Cells were imaged on a ptychographic live cell imaging platform (Livecyte 2TM, Phasefocus) for 24-48 hours. Automated tracking of individual unlabeled cells will be combined with 3D cell measurements to quantify a range of wound-relevant cell parameters including scratch closure rate.
Dose range finding experiments were conducted with E4 (10^−10M to 10^−6M) and E2 with and without Mitomycin C (MMC, to inhibit proliferation) using vehicle as negative controls. […]

[2] = tested on: fibroblasts isolated from female C57Bl1/6 mice; experiment: Fibroblast monolayer scratch assay, mouse; type: cell-based; conditions: 10^−7 M, compared with E2
Protocol: as §1
Dose range finding experiments were conducted with E4 (10^−10M to 10^−6M) and E2 with and without Mitomycin C (MMC, to inhibit proliferation) using vehicle as negative controls.
The assay was performed in the phenol red-free cell culture media containing charcoal stripped fetal bovine serum, using fibroblasts isolated from female C57Bl1/6 mice and from surplus abdominal skin donated by three female donors.

[3] = tested on: mouse lymphoma cell line L5178Y TK^+/−; experiment: Generation of reactive oxygen species (ROS); type: cell-based; conditions: up to 3000 μM, 3 h exposure, vs vehicle control
Protocol: The objective of the study was to investigate the generation of reactive oxygen species (ROS) induced by the test item, estetrol (E4), in a mouse lymphoma cell line L5178Y TK^+/−.
L5178Y TK^+/− cells in logarithmic phase of growth were plated in black 96 well cell culture plates at 1×10^4 cells in 90 μL of cell culture media. Controls and test item in triplicate were applied to the cells as a 10× concentrate in 10 μL of a 10% ethanol solution in PBS (final concentration of ethanol on plate was 1%). Cells were incubated for 3 hours at 37° C., 5% CO2, and the generation of ROS was evaluated by fluorescence with a ROS reagent: the ROS reagent was freshly prepared by dissolving one ampoule of reagent (50 μg) in 70 μL DMSO and further diluting this with 2.1 mL of pre-warmed PBS. 10 μL of ROS reagent was added to each well and the plate were shaken for 30 seconds in the dark. The plates were incubated approximately at 37° C., 5% CO2 for 1 h 30 min and fluorescence was read on a plate scanner with excitation at 492 nm and emission at 520 nm.

[4] = tested on: hair matrix keratinocytes; experiment: Hair follicle organ culture: hair matrix keratinocytes proliferation and apoptosis (Ki-67/TUNEL); type: cell-based, human; conditions: vs vehicle
Protocol: (§2) 12-44 full-length frontotemporal hair follicles (HF) were obtained from four human female donors >50 years old. Donors were caucasian female subjects […], respectively (Donor 1: 12 temporal anagen HFs; Donor 2: 29; Donor 3: 44; Donor 4: 32). After microdissection from skin as described (Edelkamp et al., Methods Mol Biol, 2020, 2154:105-119; and Langan et al., Exp Dermatol, 2015, December; 24(12):903-1), HFs were placed in adequate culture medium and allowed a 24 h rest period to allow them to recover from the trauma of microdissection. Test substance (either vehicle (0.3% EtOH) or E4 at concentrations of 30 μM, 3 μM or 300 nM) was added to the medium at the end of the 24 h. Total culturing time was 5-7 days depending on the studied parameters and the experimental question. The experimental design for the hair follicle organ culture experiment is depicted in FIG. 12. Longer term culture experiments may be used to analyze the capacity to delay the onset of catagen.
Germinative hair matrix keratinocytes proliferate mostly during anagen. […] Apoptosis of hair matrix keratinocytes is used as an additional indicator of anagen/catagen transition.
Proliferation was assessed by quantification of the percentage of hair matrix keratinocytes in a clearly specified area (germinative hair matrix keratinocytes, below the Auber's line) that were positive for the proliferation marker Ki67 (or another proliferation marker such as BrdU or EdU), whereas apoptosis was assessed using TUNEL (TdT-mediated dUTP-biotin nick-end labelling) immunofluorescence (or another apoptosis marker such as activated caspase-3) in the same keratinocyte population (below the Auber's line) and in the precortical hair matrix keratincoytes (above the Auber's line) (Langan et al., Exp Dermatol 2015) (FIG. 13).

DP fibroblasts = experiment: Hair follicle organ culture: DP fibroblast emigration; type: cell-based, human; conditions: vs vehicle
Protocol: as §2
The DP resident fibroblasts are subjected to migration in the transition between anagen and catagen phase (Hawkshaw et al., Journ of Invest Dermatol, 2015, 135(8):2129-2132). In catagen onset, DP fibroblasts emigrate to the dermal cup through the DP stalk, whereas at anagen induction, they immigrate back in the DP. Quantifying the number of DP fibroblasts present in the DP stalk and in the DP (Kloepper et al., Exp Dermatol, 2010, March; 19(3):305-12) is therefore a direct readout for anagen induction or catagen promotion. K 15 expression—Stem cells.

`C[C@]12CC[C@@H]3c4ccc(O)cc4CC[C@H]3[C@@H]1[C@@H](O)[C@@H](O)[C@@H]2O` [E4, 1,3,5 (10)-estratrien-3,15alpha,16alpha,17beta-tetrol] was tested, and the “in vitro wound closure, human fibroblasts scratch assay” value [1] was “promotes in vitro wound closure to a similar extent as E2”, the “in vitro wound closure, mouse fibroblasts scratch assay” value [2] was “promotes in vitro wound closure to a similar extent as E2” and the “levels of ROS” value [3] was “dose-dependent decrease”. For the same compound, the “hair matrix keratinocytes apoptosis (TUNEL)” value ([4]; 300 nM, 3 μM, 30 μM) was “without affecting”, the “increased hair matrix keratinocytes proliferation (Ki-67)” value ([4]; 300 nM) was “tendentially” and the “increased hair matrix keratinocytes proliferation (Ki-67)” value ([4]; 3 μM) was “significantly”. For the same compound, the “increased hair matrix keratinocytes proliferation (Ki-67)” value ([4]; 30 μM) was “tendentially”, the “density of cells in the inductive dermal cup” value (DP fibroblasts; 300 nM, 3 μM, 30 μM) was “no significant impact” and the “total number of cells in the DP stalk” value (DP fibroblasts; 300 nM) was “significantly reduced”. For the same compound, the “total number of cells in the DP stalk” value (DP fibroblasts; 3 μM) was “significantly reduced”, the “density of cells in the DP stalk” value (DP fibroblasts; all concentrations) was “tendentially decreased” and the “density of cells in the DP” value (DP fibroblasts; all tested concentrations) was “did not strikingly affect”.
